What is called Cmax is the peak of the concentration-time curve. As usually defined, the Tmax is the time at which the peak concentration occurs. As a reminder, the pIC50 is the IC50 on a negative log10 scale, so that one unit is a factor of ten. What is called MRT inf is a mean duration of stay, worked out from the concentration-time curve.

The record followed here is ChEMBL document CHEMBL5113521, “Discovery of a Novel Oral Proteasome Inhibitor to Block NLRP3 Inflammasome Activation with Anti-inflammation Activity” (J Med Chem, 2022).

In data set [1] the target is NACHT, LRR and PYD domains-containing protein 3 (Mus musculus) (UniProt Q8R4B8). Nature of the data set: Inhibition of NLRP3 inflammasome activation in LPS-primed mouse J774.A1 cells assessed as inhibition of release of IL-1 beta preincubated for 1 hr followed by nigericin stimulation and measured after 1 hr by ELISA. Format: cell-based. The settings on record: dose 7.5-60 nM, time 2.0 hrs, DDE = dose-dependent effect.

Data set [2] deals with T1, Apoptosis-associated speck-like protein containing a CARD (Mus musculus) (UniProt Q9EPB4).
T1 sequence (whole entry): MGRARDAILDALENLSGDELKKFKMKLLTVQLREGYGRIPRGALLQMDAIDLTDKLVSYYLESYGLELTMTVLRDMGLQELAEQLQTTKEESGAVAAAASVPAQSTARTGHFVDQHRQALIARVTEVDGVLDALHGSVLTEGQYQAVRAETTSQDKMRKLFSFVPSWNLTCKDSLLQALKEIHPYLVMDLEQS
In words: Inhibition of ASC oligomerization in LPS stimulated mouse J774A.1 cells preincubated for 1 hr followed by nigericin stimulation by immunoblot analysis. The following applies: J774.A1, dose 15-60 nM, DDE = dose-dependent effect. The data set is classed as cell-based. (A western blot detects proteins with antibodies after separation by electrophoresis.)

In data set [3] the test system is J774.A1. Nature of the data set: Inhibition of NF-kappaB in LPS treated mouse J774.A1 cells assessed as reduction in NLRP3 level at 60 nM incubated for 1 hr followed by LPS stimulation measured after 5 hrs by Western blot analysis. Format: cell-based. The following applies: time 6.0 hrs.
Data set [4] relates to Mus musculus. Nature of the data set: Protection against DSS-induced C57BL/6 mouse ulcerative colitis model assessed as reduction in pro-IL-1 beta level in colon at 0.125 to 0.5 mg/kg, po by Western blot analysis. Format: functional, organism-based. The settings on record: dose 0.125-0.5 mg/kg.
A short description of data set [5]: Apparent volume of distribution in Sprague-Dawley rat at 0.5 mg/kg, iv measured upto 24 hrs by liquid chromatography tandem mass spectrometry. Format: ADME, organism-based. The settings on record: in vivo, read-out: Vz.
The target of data set [6] is NACHT, LRR and PYD domains-containing protein 3 (Mus musculus) (UniProt Q8R4B8). Nature of the data set: Inhibition of NLRP3 inflammasome activation in LPS-primed mouse J774.A1 cells assessed as reduction in IL-1beta secretion preincubated for 1 hr followed by nigericin stimulation and measured after 1 hr by ELISA. Format: cell-based. The following applies: time 2.0 hrs, DDE = dose-dependent effect.

Data set [7] deals with T2, Interferon-inducible protein AIM2 (Mus musculus) (UniProt Q91VJ1).
T2 sequence (whole entry): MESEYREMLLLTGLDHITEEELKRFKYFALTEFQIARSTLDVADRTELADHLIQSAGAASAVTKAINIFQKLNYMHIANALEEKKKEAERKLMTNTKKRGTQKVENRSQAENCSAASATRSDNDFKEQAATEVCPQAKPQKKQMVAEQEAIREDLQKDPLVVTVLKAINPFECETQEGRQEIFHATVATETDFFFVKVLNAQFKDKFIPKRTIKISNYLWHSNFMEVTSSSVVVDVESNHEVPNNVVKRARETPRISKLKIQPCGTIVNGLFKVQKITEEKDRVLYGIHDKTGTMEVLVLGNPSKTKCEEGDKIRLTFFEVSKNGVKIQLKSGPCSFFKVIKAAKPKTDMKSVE
In words: Inhibition of AIM2 inflammasome activation in LPS-primed mouse BMDM cells assessed as reduction in IL-1beta secretion at 7.5 to 60 nM preincubated for 1 hr followed by poly (dA/dT) stimulation by ELISA. The data set is classed as cell-based. The settings on record: dose 7.5-60 nM.

Data set [8] concerns Mus musculus. In words: Protection against DSS-induced acute colitis in C57BL/6 mouse model assessed as improvement in inflammatory cell infiltration at 0.125 to 0.5 mg/kg, po administered for 10 days by Hematoxylin and eosin staining based analysis. The data set is classed as functional, organism-based. The following applies: dose 0.125-0.5 mg/kg, time 10.0 day.
Data set [9] is described as follows: Half life in Sprague-Dawley rat at 1 mg/kg, po measured upto 24 hrs by liquid chromatography tandem mass spectrometry. The data set is classed as ADME, organism-based. The settings on record: in vivo.
A short description of data set [10]: Cmax in Sprague-Dawley rat at 1 mg/kg, po measured upto 24 hrs by liquid chromatography tandem mass spectrometry. The data set is classed as ADME, organism-based. Also noted: dose 1 mg/kg, time < 24 hrs, route po. The following applies: in vivo.
Data set [11] can be described thus: Tmax in Sprague-Dawley rat at 0.5 mg/kg, iv measured upto 24 hrs by liquid chromatography tandem mass spectrometry. The data set is classed as ADME, organism-based. The following applies: in vivo.
Data set [12] addresses T3, Proteasome Macropain subunit MB1 (Homo sapiens, UniProt P28074).
T3 sequence (P28074 whole entry): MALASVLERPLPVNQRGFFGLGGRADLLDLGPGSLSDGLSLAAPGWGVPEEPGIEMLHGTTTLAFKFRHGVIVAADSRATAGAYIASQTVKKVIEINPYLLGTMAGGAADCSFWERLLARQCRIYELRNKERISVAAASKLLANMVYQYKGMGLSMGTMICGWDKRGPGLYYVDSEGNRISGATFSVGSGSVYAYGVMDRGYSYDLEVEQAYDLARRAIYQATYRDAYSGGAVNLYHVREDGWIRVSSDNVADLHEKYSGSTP
Nature of the data set: Inhibition of 20S proteasome beta5 subunit (unknown origin) using Suc-LLVY-AMC as flurogenic substrate measured after 1 hr by fluorescence based analysis. The settings on record: read-out: IC50.

Data set [13] in a line: MRT (0 to infinity) in Sprague-Dawley rat at 0.5 mg/kg, iv measured upto 24 hrs by liquid chromatography tandem mass spectrometry. The data set is classed as ADME, organism-based. The following applies: in vivo.
Data set [14] is described as follows: Half life in Sprague-Dawley rat at 0.5 mg/kg, iv measured upto 24 hrs by liquid chromatography tandem mass spectrometry. The following applies: in vivo. The data set is classed as ADME, organism-based.
Data set [15] deals with NACHT, LRR and PYD domains-containing protein 3 (Mus musculus) (UniProt Q8R4B8). In words: Inhibition of NLRP3 inflammasome activation in LPS-primed mouse J774.A1 cells assessed as inhibition of caspase-1 p20 subunit release in supernatant preincubated for 1 hr followed by nigericin stimulation measured after 1 hr by Western blot analysis. Format: cell-based. The settings on record: dose 7.5-60 nM, time 2.0 hrs, DDE = dose-dependent effect.

The test system of data set [16] is J774.A1. Nature of the data set: Inhibition of NF-kappaB in LPS treated mouse J774.A1 cells assessed as reduction in pro-IL-1beta expression at 7.5 to 60 nM incubated for 1 hr followed by LPS stimulation measured after 5 hrs by Western blot analysis. The following applies: dose 7.5-60 nM, time 6.0 hrs. Format: cell-based.
The species named for data set [17] is Mus musculus. In words: Protection against DSS-induced C57BL/6 mouse ulcerative colitis model assessed as reduction in IL-1 beta in colon homogenate by ELISA. The data set is classed as functional, organism-based. The following applies: dose 0.125-0.5 mg/kg, route po, DDE = dose-dependent effect.

pIC50: −log10 of the molar value. Calls of active or inactive are those of the source. No cut-off for these calls is given here.

NACHT, LRR and PYD domains-containing protein 3 (Mus musculus), sequence (Q8R4B8 whole entry, the tested form may be a part): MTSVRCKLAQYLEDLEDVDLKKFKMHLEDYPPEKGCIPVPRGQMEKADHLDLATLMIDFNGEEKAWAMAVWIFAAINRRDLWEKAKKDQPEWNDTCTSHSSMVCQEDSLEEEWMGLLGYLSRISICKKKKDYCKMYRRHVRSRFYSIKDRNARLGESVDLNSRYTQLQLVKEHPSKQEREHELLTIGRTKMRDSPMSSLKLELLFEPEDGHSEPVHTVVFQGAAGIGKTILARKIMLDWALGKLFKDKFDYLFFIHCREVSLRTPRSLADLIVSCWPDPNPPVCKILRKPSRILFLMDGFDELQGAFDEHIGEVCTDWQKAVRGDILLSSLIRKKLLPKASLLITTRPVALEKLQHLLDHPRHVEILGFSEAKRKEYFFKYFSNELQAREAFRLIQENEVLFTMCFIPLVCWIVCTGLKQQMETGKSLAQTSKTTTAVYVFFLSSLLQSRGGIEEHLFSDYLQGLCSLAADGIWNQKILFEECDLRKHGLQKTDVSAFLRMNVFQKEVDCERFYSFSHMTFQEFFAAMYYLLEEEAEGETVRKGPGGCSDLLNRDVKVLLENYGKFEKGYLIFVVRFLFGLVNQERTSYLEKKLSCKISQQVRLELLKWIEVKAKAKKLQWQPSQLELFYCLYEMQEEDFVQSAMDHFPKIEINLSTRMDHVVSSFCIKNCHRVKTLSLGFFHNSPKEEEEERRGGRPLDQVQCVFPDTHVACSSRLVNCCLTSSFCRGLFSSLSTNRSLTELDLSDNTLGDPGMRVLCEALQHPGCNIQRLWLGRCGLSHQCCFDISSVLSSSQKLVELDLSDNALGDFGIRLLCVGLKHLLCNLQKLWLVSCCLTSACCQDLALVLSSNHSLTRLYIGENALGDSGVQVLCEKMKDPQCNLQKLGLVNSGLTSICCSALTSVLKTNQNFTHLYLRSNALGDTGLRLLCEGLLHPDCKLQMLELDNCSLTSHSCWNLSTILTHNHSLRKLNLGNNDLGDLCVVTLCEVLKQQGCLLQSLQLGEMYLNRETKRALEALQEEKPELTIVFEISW

Turning to `CC(C)C[C@H](NC(=O)[C@H](Cc1ccccc1)NC(=O)c1c(F)cccc1F)B(O)O`, the inhibition entry in data set [1], in data set [2], in [6] and in data set [15] was “Dde” throughout. Besides, the inhibition result in [3], in data set [7] and in [16] was “Active” each time. Besides, the result in data set [4] and in data set [8] was Active. Also, the Vd in data set [5] amounted to 7.7 L/kg. The t1/2 worked out at 8.36 h in [9] and 4.73 h in [14]. Further, the Cmax in [10] was found to be 208 ng/mL. Besides, in data set [11], the time of peak concentration (Tmax) turned out to be 4.8 min. The pIC50 in [12] is 8.43. The compound also had a mean residence time (MRT inf) in [13] of 6.14 h. Moreover, in data set [17], the Activity entry is “Dde”.
